How the values were obtained:
Type in all cases: biochemical
Conditions in all cases: isolated kinase, 33P-ATP, 2 h
IRAK4 = target: T1, IRAK4 (Homo sapiens, UniProt Q9NWZ3); assay: RBC HotSpot kinase inhibition assay, IRAK4
T1 sequence (Q9NWZ3 1-460): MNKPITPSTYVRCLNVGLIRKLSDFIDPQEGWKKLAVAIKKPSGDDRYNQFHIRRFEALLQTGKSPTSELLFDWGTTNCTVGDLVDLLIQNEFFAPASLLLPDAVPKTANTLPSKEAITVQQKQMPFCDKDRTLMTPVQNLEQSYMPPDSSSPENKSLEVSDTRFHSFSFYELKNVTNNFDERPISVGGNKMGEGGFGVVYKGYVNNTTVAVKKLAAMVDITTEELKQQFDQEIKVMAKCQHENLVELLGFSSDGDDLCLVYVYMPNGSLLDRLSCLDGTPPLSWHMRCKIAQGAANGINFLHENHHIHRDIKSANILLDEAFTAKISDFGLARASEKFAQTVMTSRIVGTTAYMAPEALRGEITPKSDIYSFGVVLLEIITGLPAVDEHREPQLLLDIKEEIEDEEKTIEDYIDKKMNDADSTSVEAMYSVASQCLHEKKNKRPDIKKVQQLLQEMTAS
How it was run: (§1)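 Isolated kinases, possibly truncated or lacking regulatory receptor domains, in 20 mM Hepes pH 7.5, 10 mM MgCl2, 1 mM EGTA, 0.01% Brij35, 2 mM DTT, 1% DMSO with substrate and cofactors. Compound preincubated 20 min, then ^33P-ATP added; 2 h at room temperature, read by P81 filter binding.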

IRAK1 = IRAK1 (Homo sapiens, UniProt P51617); assay: RBC HotSpot kinase inhibition assay, IRAK1
Chain of IRAK1 (P51617 whole entry): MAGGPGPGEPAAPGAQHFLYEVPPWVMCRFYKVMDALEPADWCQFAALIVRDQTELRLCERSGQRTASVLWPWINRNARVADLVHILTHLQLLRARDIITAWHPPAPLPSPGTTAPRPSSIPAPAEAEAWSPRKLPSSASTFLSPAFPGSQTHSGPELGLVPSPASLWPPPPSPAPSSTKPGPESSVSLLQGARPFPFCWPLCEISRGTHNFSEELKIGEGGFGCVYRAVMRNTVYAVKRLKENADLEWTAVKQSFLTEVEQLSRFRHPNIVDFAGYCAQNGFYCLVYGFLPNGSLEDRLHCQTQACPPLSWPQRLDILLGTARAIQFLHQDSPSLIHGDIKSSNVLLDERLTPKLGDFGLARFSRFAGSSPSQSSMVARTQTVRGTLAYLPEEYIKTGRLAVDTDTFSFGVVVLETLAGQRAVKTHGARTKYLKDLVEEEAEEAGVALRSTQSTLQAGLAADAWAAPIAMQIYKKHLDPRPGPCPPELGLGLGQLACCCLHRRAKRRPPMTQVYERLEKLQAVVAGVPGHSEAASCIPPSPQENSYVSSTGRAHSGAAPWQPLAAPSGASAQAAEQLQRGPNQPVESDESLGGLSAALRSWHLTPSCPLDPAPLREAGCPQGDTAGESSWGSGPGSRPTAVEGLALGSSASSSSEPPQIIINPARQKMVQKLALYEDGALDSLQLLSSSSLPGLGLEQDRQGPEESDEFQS
How it was run: as §1

FLT3 = target: T2, FLT3 (Homo sapiens, UniProt P36888); assay: RBC HotSpot kinase inhibition assay, FLT3
T2 sequence (P36888 27-993): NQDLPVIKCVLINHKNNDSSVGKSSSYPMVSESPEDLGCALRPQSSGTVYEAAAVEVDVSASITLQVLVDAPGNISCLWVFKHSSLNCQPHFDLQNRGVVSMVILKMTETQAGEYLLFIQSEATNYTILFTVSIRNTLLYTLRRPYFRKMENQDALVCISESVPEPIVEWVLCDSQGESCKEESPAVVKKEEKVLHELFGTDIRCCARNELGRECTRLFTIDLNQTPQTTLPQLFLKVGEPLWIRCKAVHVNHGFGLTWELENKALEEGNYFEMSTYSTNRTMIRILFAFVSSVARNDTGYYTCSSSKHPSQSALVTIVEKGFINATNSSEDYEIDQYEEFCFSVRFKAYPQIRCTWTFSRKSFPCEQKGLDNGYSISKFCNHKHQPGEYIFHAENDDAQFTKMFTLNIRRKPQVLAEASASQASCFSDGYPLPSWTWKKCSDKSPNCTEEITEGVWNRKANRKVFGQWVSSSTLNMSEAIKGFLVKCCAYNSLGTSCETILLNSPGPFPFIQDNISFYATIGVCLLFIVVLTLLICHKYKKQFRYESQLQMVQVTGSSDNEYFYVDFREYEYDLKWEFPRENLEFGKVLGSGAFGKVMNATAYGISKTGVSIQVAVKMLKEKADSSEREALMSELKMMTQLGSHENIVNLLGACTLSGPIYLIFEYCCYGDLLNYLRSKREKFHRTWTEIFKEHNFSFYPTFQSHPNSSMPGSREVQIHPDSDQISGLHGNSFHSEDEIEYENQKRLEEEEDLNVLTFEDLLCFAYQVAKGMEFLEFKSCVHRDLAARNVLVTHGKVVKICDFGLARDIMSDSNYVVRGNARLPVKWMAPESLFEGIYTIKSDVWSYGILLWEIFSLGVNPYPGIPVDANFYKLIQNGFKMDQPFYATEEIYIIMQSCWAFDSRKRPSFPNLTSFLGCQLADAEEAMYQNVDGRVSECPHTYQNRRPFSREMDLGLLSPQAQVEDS
How it was run: as §1

Row | IC50 (IRAK4; Table 11) [nM] | IC50 (IRAK1; Table 11) [nM] | IC50 (FLT3; Table 11) [nM] | IC50 (IRAK4; Table 17) [nM] | IC50 (IRAK1; Table 17) [nM] | IC50 (FLT3; Table 17) [nM] | Structure (SMILES)
1 | – | – | – | 0.7 | < 0.5 | 0.7 | COc1cn2ncc(-c3nc(N[C@H]4CNCC[C@@H]4F)ncc3F)c2nc1C1CC1 [Compound 15a, 4-(5-cyclopropyl-6-methoxypyrazolo[1,5-a]pyrimidin-3-yl)-5-fluoro-N-((3S,4S)-4-fluoropiperidin-3-yl)pyrimidin-2-amine]
2 | – | – | – | 0.6 | 0.9 | < 0.5 | COc1cn2ncc(-c3nc(N[C@@H]4CCCNC4)ncc3F)c2nc1C1CC1 [Compound 14a, (R)-4-(5-cyclopropyl-6-methoxypyrazolo[1,5-a]pyrimidin-3-yl)-5-fluoro-N-(piperidin-3-yl)pyrimidin-2-amine]
3 | < 0.5 | 0.8 | < 0.5 | – | – | – | COc1cn2ncc(-c3nc(N[C@H]4CNCC[C@@H]4F)ccc3F)c2nc1C1CC1 [Compound 3, 6-(5-cyclopropyl-6-methoxypyrazolo[1,5-a]pyrimidin-3-yl)-5-fluoro-N-((3S,4S)-4-fluoropiperidin-3-yl)pyridin-2-amine]
4 | – | – | – | < 0.5 | < 0.5 | < 0.5 | COc1cn2ncc(-c3nc(N[C@H]4CNC[C@@H]4F)ncc3F)c2nc1C1CC1 [Compound 13a, 4-(5-cyclopropyl-6-methoxypyrazolo[1,5-a]pyrimidin-3-yl)-5-fluoro-N-((3S,4S)-4-fluoropyrrolidin-3-yl)pyrimidin-2-amine]

Continued, compound first:

Row | Structure (SMILES) | IC50 (IRAK4; Table 11) [nM] | IC50 (IRAK1; Table 11) [nM] | IC50 (FLT3; Table 11) [nM] | IC50 (IRAK4; Table 17) [nM] | IC50 (IRAK1; Table 17) [nM] | IC50 (FLT3; Table 17) [nM]
5 | COc1cn2ncc(-c3ccc(F)c(N[C@H]4CNCC[C@@H]4F)n3)c2nc1C1CC1 [Compound 6, 6-(5-cyclopropyl-6-methoxypyrazolo[1,5-a]pyrimidin-3-yl)-3-fluoro-N-((3S,4S)-4-fluoropiperidin-3-yl)pyridin-2-amine] | 0.6 | 4 | < 0.5 | – | – | –
6 | COc1cn2ncc(-c3ccnc(N[C@H]4CNC[C@@H]4F)n3)c2nc1C1CC1 [Compound 8a, 4-(5-cyclopropyl-6-methoxypyrazolo[1,5-a]pyrimidin-3-yl)-N-((3S,4S)-4-fluoropyrrolidin-3-yl)pyrimidin-2-amine] | – | – | – | 1 | 9 | < 0.5
7 | COc1cn2ncc(-c3nc(N[C@H]4CNCC[C@@H]4F)c(C#N)cc3F)c2nc1C(C)(C)O [Compound 10, 5-fluoro-2-(((3S,4S)-4-fluoropiperidin-3-yl)amino)-6-(5-(2-hydroxypropan-2-yl)-6-methoxypyrazolo[1,5-a]pyrimidin-3-yl)nicotinonitrile] | < 0.5 | 2 | < 0.5 | – | – | –
8 | COc1cn2ncc(-c3nc(N[C@@H]4CCCNC4)c(C#N)cc3F)c2nc1C(C)(C)O [Compound 9, (R)-5-fluoro-6-(5-(2-hydroxypropan-2-yl)-6-methoxypyrazolo[1,5-a]pyrimidin-3-yl)-2-(piperidin-3-ylamino)nicotinonitrile] | < 0.5 | 3 | < 0.5 | – | – | –
9 | COc1cn2ncc(-c3nc(N[C@@H]4CCCNC4)ncc3F)c2nc1C(C)(C)O [Compound 4a, (R)-2-(3-(5-fluoro-2-(piperidin-3-ylamino)pyrimidin-4-yl)-6-methoxypyrazolo[1,5-a]pyrimidin-5-yl)propan-2-ol] | – | – | – | 2 | 4 | < 0.5
10 | COc1cn2ncc(-c3nc(N[C@H]4CNC[C@@H]4F)c(F)cc3F)c2nc1C1CC1 [Compound 24, 6-(5-cyclopropyl-6-methoxypyrazolo[1,5-a]pyrimidin-3-yl)-3,5-difluoro-N-((3S,4S)-4-fluoropyrrolidin-3-yl)pyridin-2-amine] | < 0.5 | 2 | < 0.5 | – | – | –
